Experimental data as given in patent US9249145B2, “Heterocyclic derivatives of pyrazol-4-yl-pyrrolo[2,3-d]pyrimidines as janus kinase inhibitors” (Incyte Holdings Corporation, priority 2009, dated 2016).
Structures can show the parent of a compound that is named as a salt. Where two headings read alike, the source gives them in different places.

What was measured:
[1] = molecular target: T1, human JAK1 (a.a. 837-1142) (Homo sapiens, UniProt P23458); assay: In vitro JAK kinase assay (HTRF, phosphorylation of biotinylated peptide), JAK1; assay type: biochemical
T1 construct: The catalytic domains of human JAK1 (a.a. 837-1142); His tag (N); made in house; host or cells: insect cells (baculovirus)
T1 sequence (P23458 849-1154): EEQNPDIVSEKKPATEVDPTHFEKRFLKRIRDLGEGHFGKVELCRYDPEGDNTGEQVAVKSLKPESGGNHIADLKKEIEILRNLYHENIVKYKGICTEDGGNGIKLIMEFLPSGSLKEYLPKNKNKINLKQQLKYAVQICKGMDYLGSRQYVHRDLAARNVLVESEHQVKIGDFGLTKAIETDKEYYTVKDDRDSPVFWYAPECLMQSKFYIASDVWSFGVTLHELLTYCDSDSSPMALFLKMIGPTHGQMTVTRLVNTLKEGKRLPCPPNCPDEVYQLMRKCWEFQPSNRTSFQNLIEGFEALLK
In short: (§1)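 His-tagged catalytic domains expressed in baculovirus/insect cells; biotinylated peptide (500 nM) phosphorylation in 50 mM Tris pH 7.8, 100 mM NaCl, 5 mM DTT, 0.01% BSA, 1 h room temperature. ATP at Km (JAK1 90 μM, JAK2 30 μM) or 1 mM. EDTA stop, Eu-Py20/SA-APC HTRF read; IC50.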

Jak2 (a.a. 828-1132) = molecular target: T2, Jak2 (a.a. 828-1132) (Homo sapiens, UniProt O60674); assay: In vitro JAK kinase assay (HTRF, phosphorylation of biotinylated peptide), JAK2; assay type: biochemical
T2 construct: Jak2 (a.a. 828-1132); His tag (N); made in house; host or cells: insect cells (baculovirus)
T2 sequence (O60674 828-1132): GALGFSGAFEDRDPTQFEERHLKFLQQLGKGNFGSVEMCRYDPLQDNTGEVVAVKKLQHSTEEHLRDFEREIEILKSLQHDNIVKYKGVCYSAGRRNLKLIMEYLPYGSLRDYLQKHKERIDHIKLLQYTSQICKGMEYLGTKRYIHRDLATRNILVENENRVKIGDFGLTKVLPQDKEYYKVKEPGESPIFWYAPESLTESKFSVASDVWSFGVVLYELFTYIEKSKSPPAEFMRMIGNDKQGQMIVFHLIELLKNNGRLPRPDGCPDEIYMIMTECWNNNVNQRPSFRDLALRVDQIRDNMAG
In short: as §1

[2] = 1 mM ATP, Examples 1-11, read-out: IC50 (nM) @ 1 mM ATP JAK1
[3] = 1 mM ATP, Examples 1-11, read-out: IC50 (nM) @ 1 mM ATP JAK2
[4] = 1 mM ATP, Examples 92-162, read-out: JAK1 IC50 (nM) @ 1 mM ATP
[5] = 1 mM ATP, Examples 92-162, read-out: JAK2 IC50 (nM) @ 1 mM ATP
[6] = 1 mM ATP, Examples 12-91, read-out: JAK1 IC50 (nM) @ 1 mM ATP
[7] = 1 mM ATP, Examples 12-91, read-out: JAK2 IC50 (nM) @ 1 mM ATP

IC50 [1, 4] [nM]	IC50 (Jak2 (a.a. 828-1132); [5]) [nM]	IC50 [1, 6] [nM]	IC50 (Jak2 (a.a. 828-1132); [7]) [nM]	Compound	further results
–	–	< 10	10 to 50	N#CCC(CN1CCN(C(=O)c2ccc(F)cn2)CC1)n1ccc(-c2ncnc3[nH]ccc23)c1 (stereo not shown) [Example 83, 3-(3-(7H-pyrrolo[2,3-d]pyrimidin-4-yl)-1H-pyrrol-1-yl)-4-(4-(5-fluoropicolinoyl)piperazin-1-yl)butanenitrile]	–
–	–	10 to 50	> 100	N#CCC(CN1CCN(C(=O)c2cc(F)cc(C#N)c2)CC1)n1ccc(-c2ncnc3[nH]ccc23)c1 (stereo not shown) [Example 86, 3-(4-(2-(3-(7H-pyrrolo[2,3-d]pyrimidin-4-yl)-1H-pyrrol-1-yl)-3-cyanopropyl)piperazine-1-carbonyl)-5-fluorobenzonitrile trifluoroacetate salt]	–
–	–	< 10	10 to 50	N#CCC(CN1CCN(C(=O)c2ncc(F)cc2F)CC1)n1ccc(-c2ncnc3[nH]ccc23)c1 (stereo not shown) [Example 80, 3-(3-(7H-pyrrolo[2,3-d]pyrimidin-4-yl)-1H-pyrrol-1-yl)-4-(4-(3,5-difluoropicolinoyl)piperazin-1-yl)butanenitrile]	–
–	–	10 to 50	50 to 100	COc1ccc(C(=O)N2CCN(CC(CC#N)n3cc(-c4ncnc5[nH]ccc45)cn3)CC2)cc1F (stereo not shown) [Example 18, 4-[4-(3-fluoro-4-methoxybenzoyl)piperazin-1-yl]-3-[4-(7H-pyrrolo[2,3-d]pyrimidin-4-yl)-1H-pyrazol-1-yl]butanenitrile phosphate Salt]	–
–	–	< 10	10 to 50	N#CCC(CN1CCN(C(=O)c2ccc(C(F)(F)F)cc2F)CC1)n1ccc(-c2ncnc3[nH]ccc23)c1 (stereo not shown) [Example 78, 3-(3-(7H-pyrrolo[2,3-d]pyrimidin-4-yl)-1H-pyrrol-1-yl)-4-(4-(2-fluoro-4-(trifluoromethyl)benzoyl)piperazin-1-yl)butanenitrile]	–
–	–	< 10	< 10	N#CCC(CN1CCN(S(=O)(=O)c2ccccc2C(F)(F)F)CC1)n1cc(-c2ncnc3[nH]ccc23)cn1 (stereo not shown) [Example 66, 3-(4-(7H-pyrrolo[2,3-d]pyrimidin-4-yl)-1H-pyrazol-1-yl)-4-(4-(2-(trifluoromethyl)phenylsulfonyl)piperazin-1-yl)butanenitrile]	–
–	–	10 to 50	> 100	N#CCC(CN1CCN(C(=O)Nc2ccccc2C(F)(F)F)CC1)n1cc(-c2ncnc3[nH]ccc23)cn1 (stereo not shown) [Example 76, 4-(2-(4-(7H-pyrrolo[2,3-d]pyrimidin-4-yl)-1H-pyrazol-1-yl)-3-cyanopropyl)-N-(2-(trifluoromethyl)phenyl)piperazine-1-carboxamide]	–
–	–	10 to 50	50 to 100	COc1c(F)cc(C(=O)N2CCN(CC(CC#N)n3cc(-c4ncnc5[nH]ccc45)cn3)CC2)cc1F (stereo not shown) [Example 55, 3-(4-(7H-pyrrolo[2,3-d]pyrimidin-4-yl)-1H-pyrazol-1-yl)-4-(4-(3,5-difluoro-4-methoxybenzoyl)piperazin-1-yl)butanenitrile]	–
20 to 50	50 to 100	–	–	CCC(CN1CCN(C(=O)c2cc(F)ccc2F)CC1)n1cc(-c2ncnc3[nH]ccc23)cn1 (stereo not shown) [Example 119, (4-(2-(4-(7H-pyrrolo[2,3-d]pyrimidin-4-yl)-1H-pyrazol-1-yl)butyl)piperazin-1-yl)(2,5-difluorophenyl)methanone]	–
–	–	10 to 50	10 to 50	N#CCC(CN1CCN(C(=O)c2ccc(F)c(F)c2)CC1)n1cc(-c2ncnc3[nH]ccc23)cn1 (stereo not shown) [Example 50, 3-(4-(7H-pyrrolo[2,3-d]pyrimidin-4-yl)-1H-pyrazol-1-yl)-4-(4-(3,4-difluorobenzoyl)piperazin-1-yl)butanenitrile]	–
–	–	< 10	10 to 50	COc1cc(C(=O)N2CCN(CC(CC#N)n3cc(-c4ncnc5[nH]ccc45)cn3)CC2)ccc1F (stereo not shown) [Example 43, 3-(4-(7H-pyrrolo[2,3-d]pyrimidin-4-yl)-1H-pyrazol-1-yl)-4-(4-(4-fluoro-3-methoxybenzoyl)piperazin-1-yl)butanenitrile]	–
–	–	< 10	10 to 50	N#CCC(CN1CCN(C(=O)c2ncc(F)cc2F)CC1)n1cc(-c2ncnc3[nH]ccc23)cn1 (stereo not shown) [Example 40, 3-(4-(7H-pyrrolo[2,3-d]pyrimidin-4-yl)-1H-pyrazol-1-yl)-4-(4-(3,5-difluoropicolinoyl)piperazin-1-yl)butanenitrile]	–
–	–	< 10	< 10	N#CCC(CN1CCN(C(=O)c2cccc(F)c2F)CC1)n1cc(-c2ncnc3[nH]ccc23)cn1 (stereo not shown) [Example 33, 3-(4-(7H-pyrrolo[2,3-d]pyrimidin-4-yl)-1H-pyrazol-1-yl)-4-(4-(2,3-difluorobenzoyl)piperazin-1-yl)butanenitrile]	–

More lines, now with the values behind:

Compound	IC50 [1, 4] [nM]	IC50 (Jak2 (a.a. 828-1132); [5]) [nM]	IC50 [1, 6] [nM]	IC50 (Jak2 (a.a. 828-1132); [7]) [nM]	further results
N#CCC(CN1CCN(C(=O)c2ccc(C#N)cc2)CC1)n1cc(-c2ncnc3[nH]ccc23)cn1 (stereo not shown) [Example 2, 4-[(4-{3-cyano-2-[4-(7H-pyrrolo[2,3-d]pyrimidin-4-yl)-1H-pyrazol-1-yl]propyl}piperazin-1-yl)carbonyl]benzonitrile]	–	–	–	–	IC50 [1, 2]: < 10 nM; IC50 ([1]; Km ATP (90 μM for Jak1), Examples 1-11, read-out: IC50 (nM) @ Km ATP JAK1): < 10 nM; IC50 (Jak2 (a.a. 828-1132); [3]): > 20 nM; IC50 (Jak2 (a.a. 828-1132); Km ATP (30 μM for Jak2), Examples 1-11, read-out: IC50 (nM) @ Km ATP JAK2): 10 to 20 nM
N#CCC(CN1CCN(C(=O)c2ccc(C#N)cc2F)CC1C(F)F)n1cc(-c2ncnc3[nH]ccc23)cn1 (single isomer, unassigned) [Example 159—peak 1, 4-{[4-{3-cyano-2-[4-(7H-pyrrolo[2,3-d]pyrimidin-4-yl)-1H-pyrazol-1-yl]propyl}-3-(difluoromethyl)piperazin-1-yl]carbonyl}-3-fluorobenzonitrile]	> 100	> 100	–	–	–
COc1cscc1C(=O)N1CCN(CC(CC#N)n2cc(-c3ncnc4[nH]ccc34)cn2)CC1 (stereo not shown) [Example 52, 3-(4-(7H-pyrrolo[2,3-d]pyrimidin-4-yl)-1H-pyrazol-1-yl)-4-(4-(4-methoxythiophene-3-carbonyl)piperazin-1-yl)butanenitrile]	–	–	10 to 50	50 to 100	–
Cc1ccc(S(=O)(=O)N2CCN(CC(CC#N)n3cc(-c4ncnc5[nH]ccc45)cn3)CC2)nc1 (stereo not shown) [Example 63, 3-(4-(7H-pyrrolo[2,3-d]pyrimidin-4-yl)-1H-pyrazol-1-yl)-4-(4-(5-methylpyridin-2-ylsulfonyl)piperazin-1-yl)butanenitrile]	–	–	< 10	< 10	–
N#CCC(CN1CCN(C(=O)c2ccc(C#N)cc2F)CC1CO)n1cc(-c2ncnc3[nH]ccc23)cn1 (single isomer, unassigned) [156—peak 3, 4-{[4-{3-cyano-2-[4-(7H-pyrrolo[2,3-d]pyrimidin-4-yl)-1H-pyrazol-1-yl]propyl}-3-(hydroxymethyl)piperazin-1-yl]carbonyl}-3-fluorobenzonitrile trifluoroacetate Salt]	50 to 100	> 100	–	–	–
COc1ccc(Br)cc1S(=O)(=O)N1CCCN(CC(CC#N)n2cc(-c3ncnc4[nH]ccc34)cn2)CC1 (stereo not shown) [Example 114, 4-{4-[(5-bromo-2-methoxyphenyl)sulfonyl]-1,4-diazepan-1-yl}-3-[4-(7H-pyrrolo[2,3-d]pyrimidin-4-yl)-1H-pyrazol-1-yl]butanenitrile]	20 to 50	50 to 100	–	–	–
CCC(CN1CCN(C(=O)c2ccccc2O)CC1)n1cc(-c2ncnc3[nH]ccc23)cn1 (stereo not shown) [Example 117, 2-[(4-{2-[4-(7H-pyrrolo[2,3-d]pyrimidin-4-yl)-1H-pyrazol-1-yl]butyl}piperazin-1-yl)carbonyl]phenol]	20 to 50	50 to 100	–	–	–
Cc1c(Nc2cccc(F)c2F)ncnc1N1CCC(C(CC#N)n2cc(-c3ncnc4[nH]ccc34)cn2)CC1 (stereo not shown) [Example 153, 3-(4-(7H-pyrrolo[2,3-d]pyrimidin-4-yl)-1H-pyrazol-1-yl)-3-(1-(6-(2,3-difluorophenylamino)-5-methylpyrimidin-4-yl)piperidin-4-yl)propanenitrile]	20 to 50	> 100	–	–	–
CC(CN1CCN(S(=O)(=O)c2ccn(C)n2)CC1)n1cc(-c2ncnc3[nH]ccc23)cn1 (stereo not shown) [Example 9, 4-[1-(1-methyl-2-{4-[(1-methyl-1H-pyrazol-3-yl)sulfonyl]piperazin-1-yl}ethyl)-1H-pyrazol-4-yl]-7H-pyrrolo[2,3-d]pyrimidine, phosphoric acid salt]	–	–	–	–	IC50 [1, 2]: < 10 nM; IC50 (Jak2 (a.a. 828-1132); [3]): > 20 nM
N#CCC(C1CCN(c2cc(Oc3cccc(F)c3)ncn2)CC1)n1cc(-c2ncnc3[nH]ccc23)cn1 (stereo not shown) [Example 152, 3-(4-(7H-pyrrolo[2,3-d]pyrimidin-4-yl)-1H-pyrazol-1-yl)-3-(1-(6-(3-fluorophenoxy)pyrimidin-4-yl)piperidin-4-yl)propanenitrile]	20 to 50	< 20	–	–	–
N#CCC(C1CCN(c2cc(Oc3ccccc3)ncn2)CC1)n1cc(-c2ncnc3[nH]ccc23)cn1 (stereo not shown) [Example 151, 3-(4-(7H-pyrrolo[2,3-d]pyrimidin-4-yl)-1H-pyrazol-1-yl)-3-(1-(6-phenoxypyrimidin-4-yl)piperidin-4-yl)propanenitrile]	< 20	50 to 100	–	–	–
CCC(CN1CCN(C(=O)c2ccc(F)cc2)CC1)n1cc(-c2ncnc3[nH]ccc23)cn1 (stereo not shown) [Example 116, (4-(2-(4-(7H-pyrrolo[2,3-d]pyrimidin-4-yl)-1H-pyrazol-1-yl)butyl)piperazin-1-yl)(4-fluorophenyl)methanone]	20 to 50	> 100	–	–	–
